# Experimental data from patent EP2921176A2, “PHARMACEUTICAL COMPOSITION FOR TREATMENT OF PROSTATIC HYPERPLASIA” (priority 2012, dated 2014).
# Read-outs that look alike come from different tables or passages of the source.
# Key:
# [1] = tested on: prostate gland (PG) in rats with the benign prostatic hyperplasia (BPH); assay type: in vivo; conditions: for Mass of PG, mg At end of experiment / Mass of PG, mg Initial / MF PG (mass factor of the PG): rats with BPH
# Description: The effect of the new mixtures of peptides on the mass of the prostate of rats in the model of benign prostate hyperplasia caused by testosterone propionate, was studied on 98 white non-pedigree male rats (mass 220-280 g at the beginning of the experiment), and 10 white non- pedigree male rats with a mass of 22-26 g (acute toxicity was assessed in those animals in a separate series o experiments).
# J. Med. Food., 2007, Vol. 10, No 4, p. 628-635; Liu H.P., Chen G.L., Liu P., Xu X.P. «Amlodipine alone or combined with terazosin improves lower urinary tract disorder in rat models of benign prostatic hyperplasia or detrusor instability: focus on detrusor overactivity". BJU Int., 2009, Vol. 104, No 11, p. 1752-1757).
# (§1) The animals in those groups were injected intramuscularly (i/m) a mixture of peptides in doses of 50, 150 and 600 mcg/kg/day, alpha1-adrenergic blocker Doxazosin (Zoxon, Zentiva a.s., Czech Republic) in the dose of 1 mg/kg/day and 2nd type 5 alpha-reductase inhibitor Finasteride (Proscar, Merck Sharp & Dohme, The Netherlands) in the dose of 10 mg/kg/day in the stomach (via an intragastral sonde) for 18 days (from day 4), and also the well-known homeopathic drug Prostatine (OOO «Homeofarma», Russia) with 5 pellets into the stomach for 18 days. The rats in the control group received intramuscularly only an isotonic solution of sodium chloride (NaCl) in equivolume quantities.
# Extraction of the prostatic gland (PG) for morphological (light-optical) analysis was done both before and after the reproduction of BPH (on days 22 and 23). The rats were decapitated under general anesthesia with ether, following which the prostatic gland was extracted and weighed (analytical balance «Sartogosm LV 120-A», Russia, inaccuracy-0.5 mg).
# [2] = tested on: prostate gland of rats with BPH; experiment: Morphological and morphometric (light-optical) analysis of the prostate gland in the rat BPH model; assay type: in vivo; parameters: key to COLL (score estimate of the content of collagen in the stroma, median): 0: Absent in the field of vision; 1: Thin friable fibers; 2: Thin oriented bunches; 3: Dense interlayers; 4: Zones of fibrosis; conditions: for EPIT (volume fraction of the epithelium) / LUMEN (volume fraction of acinar lumens) / STROMA (volume fraction of stroma): mean ± standard error of the mean
# Text: The material was subjected to standard histological processing in accordance with Example 2. Sections were stained according to Van Gieson, as well as with hematoxyline and eosin. In addition to the morphological description of the preparations, a quantitative analysis of the most important morphological parameters of the PG (Table 2) to assess the dynamics of morphological changes. The prostate's functional status (fibrosis, epithelium hyperplasia, retention of the prostatic fluid in acinuses) can be assessed using the epithelium/stroma and epithelium/duct indices. Table 2. Classes of morphological analysis
# The morphometric analysis was conducted using a Leica DM2500 microscope fitted with a digital photographic camera. The digital images were used to assess structural changes in PG tissues. Volume fractions of acinuses, stroma and epithelium were defined by point counting. Scoring was used to more accurately determine the quantity of collagen fibers because of their small percentage share (around 1-2%) (Table 3). Table 3. The criteria for scoring the quantity of collagen fibers
# A comparison of the groups in terms of different parameters using the Kruskal-Wallis one-way analysis of variance by ranks, Dan and Wilcoxon-Mann-Whitney test data were obtained on intergroup differences at the set level of significance of p < 0,05. […]
# as §1
# The material was subjected to standard histological processing. For light-optical analysis, pieces of the PG were fixed with 10% neutral formalin, following which histological sections were prepared. The sections were stained according to Van Gieson, and also with hematoxyline and eosin. In addition to morphological description of the microsections, a quantitative evaluation of the most important morphological parameters of the PG for the purpose of objective assessment of the dynamics of morphological changes. A Leica DM2500 microscope with a digital photographic camera was used for morphometric analysis. The digital images were used to assess structural changes in the PG's tissues.
# prostate = conditions: after 1 to 3 months; cited from earlier work
# [3] = 1 mg/kg/day in stomach for 18 days
# [4] = 10 mg/kg/day in stomach for 18 days
structure (smiles),measurement,setting,value
COc1cc2nc(N3CCN(C(=O)C4COc5ccccc5O4)CC3)nc(N)c2cc1OC (stereo not drawn) [Doxazosin],"Mass of PG, mg At end of experiment",[1]; [3],7.7e+10 ± 7e+09 pg
same,"Mass of PG, mg Initial",[1]; [3],2.38e+11 ± 1.8e+10 pg
same,MF PG (mass factor of the PG),[1]; 1 mg/kg/day in the stomach for 18 days,virtually unreduced
same,"COLL (score estimate of the content of collagen in the stroma, median)",[2]; [3],2
same,EPIT/LUMEN (ratio of share of epithelium to share of acinar lumens),[2]; [3],36.62 ± 1.19
same,EPIT/STR (ratio of share of epithelium to share of stroma),[2]; [3],75.55 ± 1.34
same,morphological picture of stroma,[2]; [3],"Inflammation and edema were completely absent in the Doxazosin group, but there were zones of fibrosis"
same,structure (morphology) of epithelium,[2]; [3],acinuses covered with epithelium with normal morphology alternated with acinuses with hyperplastic epithelium
same,EPIT (volume fraction of the epithelium),[2]; [3],19.79 ± 0.84%
same,LUMEN (volume fraction of acinar lumens),[2]; [3],54.03 ± 1.05%
same,STROMA (volume fraction of stroma),[2]; [3],26.19 ± 0.93%
C[C@]12C=CC(=O)N[C@@H]1CC[C@@H]1[C@@H]2CC[C@]2(C)[C@@H](C(=O)Nc3cc(C(F)(F)F)ccc3C(F)(F)F)CC[C@@H]12 [Dutasteride],reduction of the size of the prostate,prostate,more than 20%
CC(C)(C)NC(=O)[C@H]1CC[C@H]2[C@@H]3CC[C@H]4NC(=O)C=C[C@]4(C)[C@H]3CC[C@]12C [Finasteride],"reduced the mass of the PG (times, compared to the control)","[1]; 10 mg/kg/day in stomach for 18 days, p<0,05",1.4 times
same,MF PG (mass factor of the PG),[1]; [4],65±5 mg/100 r mass of the rat
same,"Mass of PG, mg At end of experiment",[1]; [4],6.5e+10 ± 5e+09 pg
same,"Mass of PG, mg Initial",[1]; [4],1.99e+11 ± 1.4e+10 pg
same,"COLL (score estimate of the content of collagen in the stroma, median)",[2]; [4],1
same,EPIT/LUMEN (ratio of share of epithelium to share of acinar lumens),[2]; [4],47.31 ± 1.49
same,EPIT/STR (ratio of share of epithelium to share of stroma),[2]; [4],53.41 ± 1.55
same,morphological picture of stroma,[2]; [4],highly edemous
same,structure (morphology) of epithelium,[2]; [4],caused injury and death of epithelial cells
same,EPIT (volume fraction of the epithelium),[2]; [4],20.06 ± 0.95%
same,LUMEN (volume fraction of acinar lumens),[2]; [4],42.40 ± 1.17%
same,STROMA (volume fraction of stroma),[2]; [4],37.55 ± 1.14%
